# According to patent US7754440B2 (priority 2001, dated 2010):
# Entries after “also recorded” stand apart in the source; their conditions may differ.
# What was measured:
# Format in all cases: cell-based
# [1] = target: T1, Nav1.3 sodium channel (Homo sapiens, UniProt Q9NY46); experiment: Na+ depletion/repletion persistent current assay with single-wavelength membrane potential dye on FLIPR-Tetra
# [2] = target: T1, Nav1.3 sodium channel; experiment: cell-based; details: for IC50: read-out: IC50 obtained using patch-clamp
# [3] = target: T1, Nav1.3 sodium channel; experiment: Persistent sodium current screening assay using FRET dyes on VIPR (Na+-dependent depolarization); details: tetracaine 10 μM; HEK-Nav 1.3 cells; FIG. 10
# [4] = test system: HEK-Nav 1.3 cells; experiment: Counter-screen: K+-dependent depolarization (VIPR FRET); details: tetracaine 10 μM; K+ final 80 mM; FIG. 10
# T1 sequence (Q9NY46 whole entry): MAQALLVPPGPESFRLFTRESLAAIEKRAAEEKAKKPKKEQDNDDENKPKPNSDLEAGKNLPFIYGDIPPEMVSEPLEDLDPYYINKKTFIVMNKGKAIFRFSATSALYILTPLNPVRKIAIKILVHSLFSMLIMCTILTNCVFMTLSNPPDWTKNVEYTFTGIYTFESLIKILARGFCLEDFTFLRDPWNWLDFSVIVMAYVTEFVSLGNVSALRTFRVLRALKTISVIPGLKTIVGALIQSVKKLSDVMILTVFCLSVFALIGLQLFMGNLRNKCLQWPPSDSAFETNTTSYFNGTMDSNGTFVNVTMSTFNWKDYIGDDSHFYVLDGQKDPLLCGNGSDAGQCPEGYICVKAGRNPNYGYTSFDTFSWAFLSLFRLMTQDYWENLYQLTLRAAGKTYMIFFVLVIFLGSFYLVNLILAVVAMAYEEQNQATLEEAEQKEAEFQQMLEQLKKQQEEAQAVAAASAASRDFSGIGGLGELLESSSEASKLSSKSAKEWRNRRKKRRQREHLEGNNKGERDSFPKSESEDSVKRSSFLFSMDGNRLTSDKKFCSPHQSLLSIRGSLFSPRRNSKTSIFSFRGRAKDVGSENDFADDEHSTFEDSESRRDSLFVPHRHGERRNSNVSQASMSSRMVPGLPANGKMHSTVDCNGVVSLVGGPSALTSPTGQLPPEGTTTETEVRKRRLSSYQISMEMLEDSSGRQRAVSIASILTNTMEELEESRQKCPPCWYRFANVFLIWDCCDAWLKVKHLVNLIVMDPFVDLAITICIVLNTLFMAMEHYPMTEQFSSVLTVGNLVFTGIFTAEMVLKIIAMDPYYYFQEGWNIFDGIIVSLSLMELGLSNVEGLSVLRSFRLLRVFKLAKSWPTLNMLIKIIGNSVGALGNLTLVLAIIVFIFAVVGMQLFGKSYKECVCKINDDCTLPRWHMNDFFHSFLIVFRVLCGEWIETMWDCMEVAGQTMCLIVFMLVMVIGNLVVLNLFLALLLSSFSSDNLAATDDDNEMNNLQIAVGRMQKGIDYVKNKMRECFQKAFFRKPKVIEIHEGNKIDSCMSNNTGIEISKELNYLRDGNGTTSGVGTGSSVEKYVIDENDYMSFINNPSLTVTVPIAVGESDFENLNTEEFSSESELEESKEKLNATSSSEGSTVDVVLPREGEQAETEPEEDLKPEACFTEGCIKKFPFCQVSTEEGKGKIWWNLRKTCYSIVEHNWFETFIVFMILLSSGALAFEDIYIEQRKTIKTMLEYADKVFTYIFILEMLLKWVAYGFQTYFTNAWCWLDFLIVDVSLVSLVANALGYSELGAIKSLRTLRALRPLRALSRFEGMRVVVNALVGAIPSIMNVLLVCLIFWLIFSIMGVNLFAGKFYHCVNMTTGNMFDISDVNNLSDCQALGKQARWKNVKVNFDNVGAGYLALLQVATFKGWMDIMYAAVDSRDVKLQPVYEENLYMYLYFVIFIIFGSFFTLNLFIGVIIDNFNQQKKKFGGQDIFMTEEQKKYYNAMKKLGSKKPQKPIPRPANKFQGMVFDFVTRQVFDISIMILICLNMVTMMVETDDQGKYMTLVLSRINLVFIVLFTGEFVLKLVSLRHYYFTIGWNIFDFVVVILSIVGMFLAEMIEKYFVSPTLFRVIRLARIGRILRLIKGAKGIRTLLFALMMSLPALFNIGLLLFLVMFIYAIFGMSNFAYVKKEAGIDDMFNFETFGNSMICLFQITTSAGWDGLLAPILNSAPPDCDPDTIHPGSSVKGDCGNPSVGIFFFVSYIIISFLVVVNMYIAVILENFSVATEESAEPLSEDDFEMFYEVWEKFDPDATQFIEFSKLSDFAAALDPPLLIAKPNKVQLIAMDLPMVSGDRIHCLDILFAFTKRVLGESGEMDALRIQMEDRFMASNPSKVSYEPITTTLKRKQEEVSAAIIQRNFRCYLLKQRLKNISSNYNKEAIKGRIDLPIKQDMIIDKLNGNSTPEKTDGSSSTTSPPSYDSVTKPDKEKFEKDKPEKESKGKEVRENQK
compound,measurement,setting,value
CCN(CC)CC(=O)Nc1c(C)cccc1C [Lidocaine],IC50,[1],32 µM
same,IC50,[2]; comparison values for the persistent current assay,90 µM
CCCCNc1ccc(C(=O)OCCN(C)C)cc1 [Tetracaine],Na+-dependent change in Rf/Ri (Na+-dependent depolarization),[3],inhibited
same,K+-dependent change in Rf/Ri (K+-dependent depolarization),[4],not
TTX,Na+ channel dependent component of the fluorescence response,[1],blocked; also recorded: the initial response is lost
same,IC50,"[1]; read-out: IC50 persistent sodium current, FLIPR-Tetra assay",0.005 µM
same,Block of persistent current,[2],completely blocked
same,Block of transient current,[2],completely blocked
same,IC50,[2],0.005 µM
